Entries after “also recorded” stand apart in the source; their conditions may differ.
Experiments:
[1] = system: HIV-1; conditions: cited from earlier work; for EC50: d4T phosphoramidates, prior art, read-out: 50% effective doses vs HIV-1
[2] = system: human breast cancer cell line (MDA MB 231); assay: MTT cytotoxicity assay, breast cancer cell line; assay type: cell-based; conditions: for EC50: Homo sapiens, MDA-MB-231, read-out: EC50/μM Breast MDA MB231
Procedure: (§1) The compounds include those whose preparations are described above and compounds made by preparative methods corresponding to the methods described above.
(§2) Compounds were diluted over a range of concentrations and added to cells over 1 to 3 days. The cytotoxity was determined using a MTT assay at the end of each experiment.

[3] = system: human colon cancer cell line (HT115); assay: MTT cytotoxicity assay, colon cancer cell line; assay type: cell-based; conditions: for EC50: Homo sapiens, HT115, read-out: EC50/μM Colon HT115, MTT assay, compounds added to cells over 1 to 3 days; for concentration found to be active in vitro, colon cell line: same colon cell line (HT115)
Procedure: as §1, §2

[4] = system: human prostate cancer cell line (PC-3); assay: MTT cytotoxicity assay, prostate cancer cell line; assay type: cell-based; conditions: for EC50: Homo sapiens, read-out: EC50/μM Prostate PC-3
Procedure: as §1, §2

[5] = system: prostrate PC3 xenograft; assay: Mouse xenograft of human cancer, prostate tumour volume; assay type: in vivo; conditions: daily dosing, CPF31 at 5 and 10 μM (3 and 6 μg/ml), gemcitabine at highest non-toxic concentration
Procedure: (§3) Mice were dosed daily at a range of concentrations (0.01-10 μM) and tumour volume assessed versus control.

[6] = system: colon HT115 xenograft; assay: Mouse xenograft of human cancer, colon tumour volume; assay type: in vivo; conditions: for reducing colon tumour volume relative to control: daily dosing, CPF31 at 5 and 10 μM (3 and 6 μg/ml), gemcitabine at highest non-toxic concentration
Procedure: as §3

[7] = Toxicity in mouse xenograft model (body mass loss, incident-free survival)
Procedure: as §3
(§4) Kaplan-Meier statistics were computed regarding incident-free survival.

[8] = in vivo, 13 day
Procedure: as §3, §4

Compound	EC50 [2]	EC50 [3]	EC50 [4]	further results
COC(=O)C(C)NP(=O)(OCC1C=CC(n2cc(C)c(=O)[nH]c2=O)O1)Oc1ccccc1 (stereo not shown) [(9)]				EC50 [1]: 0.075 µM
Cc1cn(C2C=CC(COP(=O)(NC(C)C(=O)OCc3ccccc3)Oc3ccccc3)O2)c(=O)[nH]c1=O (stereo not shown) [(10)]				potency boost of (10) over (9) ([1]; equivalent phosphoramidates of d4T, McGuigan et al, AVCC, 1998): ~4 fold
COC(=O)C(C)(C)NP(=O)(OCC1C=CC(n2cc(C)c(=O)[nH]c2=O)O1)Oc1ccccc1 (stereo not shown) [(12)]				EC50 [1]: 0.29 µM
COC(=O)C(C)NP(=O)(OCC1C=CC(n2cc(C)c(=O)[nH]c2=O)O1)Oc1ccc(C(F)(F)F)cc1 (stereo not shown) [(13)]				EC50 [1]: 0.01 µM
C[C@H](NP(=O)(OC[C@H]1O[C@@H](n2ccc(N)nc2=O)C(F)(F)C1O)Oc1ccccc1)C(=O)OCc1ccccc1 (stereo partly drawn) [Example 31, Gemcitabine-[phenyl-(benzoxy-L-alaninyl)]-phosphate]	42.6 µM	5.7 µM	0.22 µM	concentration found to be active in vitro, colon cell line [3]: 5 µM; reducing prostate tumour volume relative to control [5]: significantly effective; activity in reducing colon tumour volume in vivo at 5 μM (FIG. 4) ([6]; 5 μM, day 24, versus Gemzar): greater activity; reducing colon tumour volume relative to control [6]: significantly effective; animals showing serious toxicity (10% body mass loss), day 10 ([7]; 5 and 10 μM groups combined, day 10): 3 animals; animals showing serious toxicity (10% body mass loss), day 11, collectively ([7]; 5 and 10 μM groups combined, day 11): 1 animals; animals showing serious toxicity (10% body mass loss), day 13 ([7]; 5 and 10 μM groups combined, day 13): 1 animals; toxicity compared with gemcitabine (Gemzar, GMZ) ([7]; mouse xenograft, weight loss based, Kaplan-Meier / Cox analysis, listed as CPF31): significantly less toxic; also recorded: substantially lower toxicity; also recorded: far less toxic
CC(C)C[C@H](NP(=O)(OC[C@H]1O[C@@H](n2cc(/C=C/Br)c(=O)[nH]c2=O)CC1O)Oc1ccccc1)C(=O)OCc1ccccc1 (stereo partly drawn) [Example 37, (E)-5-(2-Bromovinyl)-2′-deoxyuridine-5′-[phenyl-(benzoxy-L-leucinyl)]-phosphate]	2.8 µM	7 µM	7.16 µM	
CC(C)C[C@H](NP(=O)(OC[C@H]1O[C@@H](n2cc(/C=C/Br)c(=O)[nH]c2=O)CC1O)Oc1ccc([N+](=O)[O-])cc1)C(=O)OCc1ccccc1 (stereo partly drawn) [Example 38, (E)-5-(2-Bromovinyl)-2′-deoxyuridine-5′-(para-nitrophenyl-(benzoxy-L-leucinyl)]-phosphate]	6.3 µM	10.7 µM	7.2 µM	
CC(C)C[C@H](NP(=O)(OC[C@H]1O[C@@H](n2cc(/C=C/Br)c(=O)[nH]c2=O)CC1O)Oc1ccc(Cl)cc1)C(=O)OCc1ccccc1 (stereo partly drawn) [Example 39, (E)-5-(2-Bromovinyl)-2′-deoxyuridine-5′-[para-chlorophenyl-(benzoxy-L-leucinyl)]-phosphate]	4.3 µM	288 µM	193 µM	
C[C@H](NP(=O)(OC[C@H]1O[C@@H](n2ccc(N)nc2=O)C(F)(F)C1O)Oc1ccc(Cl)cc1)C(=O)OCc1ccccc1 (stereo partly drawn) [Example 40, Gemcitabine-[para-chlorophenyl-(benzoxy-L-alaninyl)]-phosphate]	9.2 µM	16.1 µM	15.4 µM	
CC(C)(NP(=O)(OC[C@H]1O[C@@H](n2ccc(N)nc2=O)C(F)(F)C1O)Oc1ccc(Cl)cc1)C(=O)OCc1ccccc1 (stereo partly drawn) [Example 41, Gemcitabine-[para-chlorophenyl-(benzoxy-α,α-dimethylglycinyl)]-phosphate]	3.1 µM	317 µM	68.8 µM	
COC(=O)C(C)(C)NP(=O)(OC[C@H]1O[C@@H](n2cc(/C=C/Br)c(=O)[nH]c2=O)CC1O)Oc1ccc(Cl)cc1 (stereo partly drawn) [Example 42, (E)-5-(2-bromovinyl)-2′-deoxyuridine-5′-[4-chlorophenyl-(methoxy-α,α-dimethylglycinyl)]-phosphate]	8.7 µM	183 µM	442 µM	
CCOC(=O)C(C)(C)NP(=O)(OC[C@H]1O[C@@H](n2cc(/C=C/Br)c(=O)[nH]c2=O)CC1O)Oc1ccc(Cl)cc1 (stereo partly drawn) [Example 43, (E)-5-(2-bromovinyl)-2′-deoxyuridine-5′-[4-chlorophenyl-(ethoxy-α,α-dimethylglycinyl)]-phosphate]	5.9 µM	174 µM	1.15 µM	
CC(C)(NP(=O)(OC[C@H]1O[C@@H](n2cc(/C=C/Br)c(=O)[nH]c2=O)CC1O)Oc1ccc(Cl)cc1)C(=O)OCc1ccccc1 (stereo partly drawn) [Example 44, (E)-5-(2-bromovinyl)-2′-deoxyuridine-5′-[4-chlorophenyl-(benzoxy-α,α-dimethylglycinyl)]-phosphate]	2.3 µM	4.5 µM	9.12 µM	
COC(=O)C(C)(C)NP(=O)(OC[C@H]1O[C@@H](n2cc(/C=C/Br)c(=O)[nH]c2=O)CC1O)Oc1ccc([N+](=O)[O-])cc1 (stereo partly drawn) [Example 45, (E)-5-(2-bromovinyl)-2′-deoxyuridine-5′-[4-nitrophenyl-(methoxy-α,α-dimethylglycinyl)]-phosphate]	9.4 µM	24.7 µM	223 µM	
CCOC(=O)C(C)(C)NP(=O)(OC[C@H]1O[C@@H](n2cc(/C=C/Br)c(=O)[nH]c2=O)CC1O)Oc1ccc([N+](=O)[O-])cc1 (stereo partly drawn) [Example 46, (E)-5-(2-bromovinyl)-2′-deoxyuridine-5′-[4-nitrophenyl-(ethoxy-α,α-dimethylglycinyl)]-phosphate]	2 µM	224 µM	82.4 µM	
CC(C)(NP(=O)(OC[C@H]1O[C@@H](n2cc(/C=C/Br)c(=O)[nH]c2=O)CC1O)Oc1ccc([N+](=O)[O-])cc1)C(=O)OCc1ccccc1 (stereo partly drawn) [Example 47, (E)-5-(2-bromovinyl)-2′-deoxyuridine-5′-[4-nitrophenyl-(benzoxy-α,α-dimethylglycinyl)]-phosphate]	4.5 µM	16.7 µM	27.2 µM	
CC(C)(NP(=O)(OCC1OC(n2cc(/C=C/Br)c(=O)[nH]c2=O)CC1O)Oc1ccc(C(F)(F)F)cc1)C(=O)OCc1ccccc1 (stereo not drawn) [Example 48, (E)-5-(2-bromovinyl)-2′-deoxyuridine-5′-[para-(trifluoromethyl)phenyl-(benzoxy-α,α-dimethylglycinyl)]-phosphate]	1.3 µM	7 µM	0.61 µM	fold more active than (7), breast cancer ([2]; ratio versus methyl ester (7)): 60 fold; times more potent than (7), colon cancer cell line HT115 ([3]; ratio of 50% growth inhibition concentrations versus methyl ester (7)): 35 fold; times more potent than (7), prostate cancer cell line PC-3 ([4]; ratio versus methyl ester (7)): 254 fold
Nc1ccn([C@@H]2O[C@H](CO)[C@@H](O)C2(F)F)c(=O)n1 [Example G, gemcitabine, reference compound]	2.8 µM	606 µM	3.12 µM	concentration found to be active in vitro, colon cell line [3]: 600 µM; reducing prostate tumour volume relative to control [5]: not effective; reducing colon tumour volume relative to control [6]: not effective; toxic concentration in mouse xenograft (FIG. 1) [8]: above 1 μM

From patent USRE47589E1, “Phosphoramidate compounds and methods of use” (NuCana plc, priority 2003, dated 2019)
